US11384060B2, “Amide compounds and use thereof” (ALPHALA CO., LTD., priority 2017, dated 2022)
Where two headings read alike, the source gives them in different places.

How the values were obtained:
glucagon receptor (GCGR) = biological target: T1, glucagon receptor (GCGR) (Homo sapiens, UniProt P47871); assay: I125-glucagon binding assay (competition, GCGR membrane fractions)
T1 construct: expressed in transfected cells; host or cells: CHO-K1 cells overexpressing GCGR (membrane fractions)
Outline: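 Membranes from CHO-K1 cells overexpressing GCGR, 7.5 μg/well in 50 mM Tris pH 7.4 with 0.5% BSA, were preincubated 5 min with serially diluted compounds, then given 0.0625 nM final I^125-glucagon for 30 min at 25° C. Bound label was filtered on PEI-coated GF/B and counted; IC50 by non-linear regression.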

[1] = biological target: T2, glucagon receptor (GCGR) overexpressed CHO-K1 cells or human primary hepatocytes (Homo sapiens, UniProt P47871); assay: Glucagon cAMP inhibition assay (Cisbio cAMP Dynamic 2 HTRF); type: cell-based
T2 construct: expressed in transfected cells; host or cells: GCGR overexpressed CHO-K1 cells or human primary hepatocytes (endogenous receptor)
T2 sequence (P47871 26-477): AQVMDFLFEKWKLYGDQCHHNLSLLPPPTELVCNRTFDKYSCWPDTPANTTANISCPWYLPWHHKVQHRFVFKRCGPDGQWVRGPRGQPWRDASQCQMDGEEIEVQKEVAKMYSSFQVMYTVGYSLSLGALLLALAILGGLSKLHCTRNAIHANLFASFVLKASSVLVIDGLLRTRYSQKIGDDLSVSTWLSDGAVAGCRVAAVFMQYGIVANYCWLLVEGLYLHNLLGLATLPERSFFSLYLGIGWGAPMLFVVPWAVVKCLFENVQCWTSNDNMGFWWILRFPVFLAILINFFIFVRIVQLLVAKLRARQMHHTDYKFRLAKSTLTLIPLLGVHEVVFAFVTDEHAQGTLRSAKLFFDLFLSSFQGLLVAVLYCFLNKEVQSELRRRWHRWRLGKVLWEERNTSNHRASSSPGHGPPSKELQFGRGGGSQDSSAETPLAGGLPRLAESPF
Outline: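 GCGR-overexpressing CHO-K1 cells or human primary hepatocytes in HBSS with 0.1% BSA and 800 nM IBMX, pre-incubated 30 min with serially diluted compounds (1% DMSO final), then stimulated 30 min at room temperature with glucagon at its EC50. cAMP measured by HTRF after 60 min lysis; IC50 by non-linear regression.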

[2] = competition with I125-glucagon 0.0625 nM, membrane fractions of GCGR overexpressed CHO-K1 cells
[3] = inhibition of glucagon (EC50 concentration) induced cAMP production

T1 sequence (P47871 26-477): as above

Compound	IC50 (glucagon receptor (GCGR); [2])	IC50 cAMP [1, 3]	IC50 (glucagon receptor (GCGR))	IC50 cAMP [1]
CC(C)[C@@H](COc1ccc(-c2cc3ccccc3o2)cn1)Nc1ccc(C(=O)NCCC(=O)O)cn1 [Compound 16-2, (S)-3-(6-((1-((5-(benzofuran-2-yl)pyridin-2-yl)oxy)-3-methylbutan-2-yl)amino)nicotinamido)propanoic Acid]	528 nM	239.3 nM		
CC(C)C[C@@H](COc1ccc(-c2ccc(F)cc2F)nn1)Nc1ccc(C(=O)NCCC(=O)O)cc1 [Compound 17-1, (S)-3-(4-((1-((6-(2,4-difluorophenyl)pyridazin-3-yl)oxy)-4-methylpentan-2-yl)amino)benzamido)propanoic Acid]	2260 nM	4239 nM		
CC(C)C[C@@H](COc1ccc(-c2ccc(Cl)cc2Cl)nn1)Nc1ccc(C(=O)NCCC(=O)O)cc1 [Compound 17-2, (S)-3-(4-((1-((6-(2,4-dichlorophenyl)pyridazin-3-yl)oxy)-4-methylpentan-2-yl)amino)benzamido)propanoic Acid]	139 nM	716 nM		
CC[C@H](C)[C@@H](COc1ccc(-c2ccc(C(F)(F)F)cc2)nn1)Nc1ccc(C(=O)NCCC(=O)O)cc1 [Compound 17-3, 3-(4-(((2S,3S)-3-methyl-1-((6-(4-(trifluoromethyl)phenyl)pyridazin-3-yl)oxy)pentan-2-yl)amino)benzamido)propanoic Acid]	989 nM	1307 nM		
CC[C@H](C)[C@@H](COc1ccc(-c2ccc(C(F)(F)F)cc2Cl)nn1)Nc1ccc(C(=O)NCCC(=O)O)cc1 [Compound 17-4, 3-(4-(((2S,3S)-1-((6-(2-chloro-4-(trifluoromethyl)phenyl)pyridazin-3-yl)oxy)-3-methylpentan-2-yl)amino)benzamido)propanoic Acid]	609 nM	1266 nM		
CC[C@H](C)[C@@H](COc1ccc(-c2ccc(C(F)(F)F)cc2F)nn1)Nc1ccc(C(=O)NCCC(=O)O)cc1 [Compound 17-5, 3-(4-(((2S,3S)-1-((6-(2-fluoro-4-(trifluoromethyl)phenyl)pyridazin-3-yl)oxy)-3-methylpentan-2-yl)amino)benzamido)propanoic Acid]	769 nM	3332 nM		
CC[C@H](C)[C@@H](COc1ccc(-c2ccc(F)cc2F)nn1)Nc1ccc(C(=O)NCCC(=O)O)cc1 [Compound 17-6, 3-(4-(((2S,3S)-1-((6-(2,4-difluorophenyl)pyridazin-3-yl)oxy)-3-methylpentan-2-yl)amino)benzamido)propanoic Acid]	445 nM	10157 nM		
CC(C)C[C@@H](COc1ccc(-c2ccc(C(F)(F)F)cc2)nn1)Nc1ccc(C(=O)NCCC(=O)O)cc1 [Compound 17-7, (S)-3-(4-((4-methyl-1-((6-(4-(trifluoromethyl)phenyl)pyridazin-3-yl)oxy)pentan-2-yl)amino)benzamido)propanoic Acid]	1320 nM	7647 nM		
CC(C)[C@@H](COc1ccc(-c2cc3ccccc3o2)nn1)Nc1ccc(C(=O)NCCC(=O)O)cc1 [Compound 17-8, (S)-3-(4-((1-((6-(benzofuran-2-yl)pyridazin-3-yl)oxy)-3-methylbutan-2-yl)amino)benzamido)propanoic Acid]	2040 nM	10741 nM		
CC(C)[C@@H](COc1ccc(-c2ccc(C(F)(F)F)cc2F)nn1)Nc1ccc(C(=O)NCCC(=O)O)cc1 [Compound 17-9]	2600 nM	11597 nM		
CC(C)[C@@H](COc1ccc(-c2ccc(F)cc2)nn1)Nc1ccc(C(=O)NCCC(=O)O)cc1 [Compound 17-10, (S)-3-(4-((1-((6-(4-fluorophenyl)pyridazin-3-yl)oxy)-3-methylbutan-2-yl)amino)benzamido)propanoic Acid]	2300 nM	>30000 nM		
CC(C)[C@@H](COc1ccc(-c2ccc(F)cc2F)nn1)Nc1ccc(C(=O)NCCC(=O)O)cc1 [Compound 17-11, (S)-3-(4-((1-((6-(2,4-difluorophenyl)pyridazin-3-yl)oxy)-3-methylbutan-2-yl)amino)benzamido)propanoic Acid]	1010 nM	>30000 nM		
CC(C)[C@@H](COc1ccc(-c2ccc(C(C)(C)C)cc2)nn1)Nc1ccc(C(=O)NCCC(=O)O)cc1 [Compound 17-12, (S)-3-(4-((1-((6-(4-(tert-buty)phenyl)pyridazin-3-yl)oxy)-3-methylbutan-2-yl)amino)benzamido)propanoic Acid]	20000 nM	6494 nM		

Second part, the compound after the results:

IC50 (glucagon receptor (GCGR); [2])	IC50 cAMP [1, 3]	IC50 (glucagon receptor (GCGR))	IC50 cAMP [1]	Compound
		386 nM	250 nM	CCCC[C@@H](COc1ccc(-c2cc3ccccc3o2)c(C)n1)Nc1ccc(C(=O)NCCC(=O)O)cc1 [Compound 18-1, (S)-3-(4-((1-((5-(benzofuran-2-yl)-6-methylpyridin-2-yl)oxy)hexan-2-yl)amino)benzamido)propanoic Acid]
		42 nM	49 nM	CCCC[C@@H](COc1ccc(-c2ccc(C(F)(F)F)cc2Cl)c(C)n1)Nc1ccc(C(=O)NCCC(=O)O)cc1 [Compound 18-2, (S)-3-(4-((1-((5-(2-chloro-4-(trifluoromethyl)phenyl)-6-methylpyridin-2-yl)oxy)hexan-2-yl)amino)benzamido)propanoic Acid]
		62 nM	75 nM	CC[C@H](C)[C@@H](COc1ccc(-c2ccc(C(F)(F)F)cc2Cl)c(C)n1)Nc1ccc(C(=O)NCCC(=O)O)cc1 [Compound 18-3, 3-(4-(((2S,3S)-1-((5-(2-chloro-4-(trifluoromethyl)phenyl)-6-methylpyridin-2-yl)oxy)-3-methylpentan-2-yl)amino)benzamido)propanoic Acid]
		203 nM	151 nM	CC[C@H](C)[C@@H](COc1ccc(-c2cc3ccccc3o2)c(C)n1)Nc1ccc(C(=O)NCCC(=O)O)cc1 [Compound 18-4, 3-(4-(((2S,3S)-1-((5-(benzofuran-2-yl)-6-methylpyridin-2-yl)oxy)-3-methylpentan-2-yl)amino)benzamido)propanoic Acid]
		165 nM	151 nM	CC[C@H](C)[C@@H](COc1ccc(-c2ccc(Cl)cc2Cl)c(C)n1)Nc1ccc(C(=O)NCCC(=O)O)cc1 [Compound 18-5, 3-(4-(((2S,3S)-1-((5-(2,4-dichlorophenyl)-6-methylpyridin-2-yl)oxy)-3-methylpentan-2-yl)amino)benzamido)propanoic Acid]
		179 nM	204 nM	CC[C@H](C)[C@@H](COc1ccc(-c2ccc(C(F)(F)F)cc2F)c(C)n1)Nc1ccc(C(=O)NCCC(=O)O)cc1 [Compound 18-6, 3-(4-(((2S,3S)-1-((5-(2-fluoro-4-(trifluoromethyl)phenyl)-6-methylpyridin-2-yl)oxy)-3-methylpentan-2-yl)amino)benzamido)propanoic Acid]
		74 nM	80 nM	Cc1nc(OC[C@H](CC(C)C)Nc2ccc(C(=O)NCCC(=O)O)cc2)ccc1-c1ccc(C(F)(F)F)cc1Cl [Compound 18-7, (S)-3-(4-((1-((5-(2-chloro-4-(trifluoromethyl)phenyl)-6-methylpyridin-2-)oxy)-4-methylpentan-2-yl)amino)benzamido)propanoic Acid]
		49 nM	122.5 nM	Cc1nc(OC[C@H](CC(C)C)Nc2ccc(C(=O)NCCC(=O)O)cc2)ccc1-c1ccc(Cl)cc1Cl [Compound 18-8, (S)-3-(4-((1-((5-(2,4-dichlorophenyl)-6-methylpyridin-2-yl)oxy)-4-methylpentan-2-yl)amino)benzamido)propanoic Acid]
		207 nM	429.9 nM	Cc1nc(OC[C@H](CC(C)C)Nc2ccc(C(=O)NCCC(=O)O)cc2)ccc1-c1cc2ccccc2o1 [Compound 18-9, (S)-3-(4-((1-((5-(benzofuran-2-yl)-6-methylpyridin-2-yl)oxy)-4-methylpentan-2-yl)amino)benzamido)propanoic Acid]
		109 nM	393.8 nM	CCCC[C@H](Cc1ccc(-c2ccc(C(F)(F)F)cc2)cc1)Nc1ccc(C(=O)NCCC(=O)O)cc1 [Compound 19-1, (R)-3-(4-((1-(4′-(trifluoromethyl)-[1,1′-biphenyl]-4-yl)hexan-2-yl)amino)benzamido)propanoic Acid]
		6320 nM	5186 nM	C[C@@H](Cc1ccc(-c2ccc(Cl)cc2Cl)cc1)Nc1ccc(C(=O)NCCC(=O)O)cc1 [Compound 19-2, (S)-3-(4-((1-(2′,4′-dichloro-[1,1′-biphenyl]-4-yl)propan-2-yl)amino)benzamido)propanoic Acid]
		2730 nM	2719 nM	C[C@@H](Cc1ccc(-c2ccc(C(F)(F)F)cc2)cc1)Nc1ccc(C(=O)NCCC(=O)O)cc1 [Compound 19-3, (S)-3-(4-((1-(4′-(trifluoromethyl)-[1,1′-biphenyl]-4-yl)propan-2-yl)amino)benzamido)propanoic Acid]
		1630 nM	3488 nM	C[C@@H](Cc1ccc(-c2ccc(C(C)(C)C)cc2)cc1)Nc1ccc(C(=O)NCCC(=O)O)cc1 [Compound 19-4, (S)-3-(4-((1-(4′-(tert-butyl)-[1,1′-biphenyl]-4-yl)propan-2-yl)amino)benzamido)propanoic Acid]
		163 nM	1082 nM	CC(C)C[C@H](Cc1ccc(-c2cc3ccccc3o2)cc1)Nc1ccc(C(=O)NCCC(=O)O)cc1 [Compound 19-5, (R)-3-(4-((1-(4-(benzofuran-2-yl)phenyl)-4-methylpentan-2-yl)amino)benzamido)propanoic Acid]
